Results: patent US20100323989A1, “PHARMACEUTICAL COMBINATIONS USEFUL FOR TREATING HCV” (Gilead Sciences, Inc., priority 2009, published 2010)
“And” between values parts separate entries of the source, which are not always exact repeats. Equal values may be shown once.

Experiments:
[1] = tested on: 1b Con-1 PI-Luc replicon with NS5B polymerase mutation M414T; format: cell-based, HCV genotype 1b; conditions: ratio of mutant EC50 to wild type EC50, NS5B M414T
[2] = tested on: 1b PI-luc replicon with NS3 protease mutation D168V; format: cell-based, HCV genotype 1b; conditions: ratio of mutant EC50 to wild type EC50, NS3 D168V
[3] = tested on: 1b PI-luc replicon with NS3 protease mutation D168E; format: cell-based, HCV genotype 1b; conditions: ratio of mutant EC50 to wild type EC50, NS3 D168E
[4] = Multiple-dose pharmacokinetic interaction study in healthy subjects (Example 5); format: in vivo, human
[5] = tested on: HCV 1b-con replicon cells; experiment: Long-term (20 days, 6 passages) treatment of HCV replicon cells, HCV RNA by Real-Time RT PCR; format: cell-based, HCV genotype 1b; conditions: from baseline, compounds at 10 times their EC50, mean ± SD
Experimental: (§1) HCV genotype 1b replicon cells (Huh-luc) were obtained from Reblikon (Mainz, Germany). The replicon in these cells is designated I389luc-ubi-neo/NS3-3′/ET and encodes a selectable resistance marker (neomycin phosphotransferase) as well as the firefly luciferase reporter gene. Huh-luc cells were maintained in Dulbecco's Modified Eagle's Medium (DMEM; GIBCO, Carlsbad, Calif.) supplemented with 10% fetal bovine serum (FBS; Hyclone, Logan, Utah) and 0.5 mg/mL of G-418 (GIBCO). Cells were passaged twice a week and maintained at subconfluent levels.
Both compounds were used at concentrations 10 times over their respective EC50 values. In brief, replicon cells (10^6 cells) were plated in a T75 flask in 15 mL of supplemented DMEM without G418. […] At each passage, cells were trypsinized, 10^6 cells were frozen in […] of RLT RNA lysis buffer (QIAGEN), and an additional 10^6 cells were seeded into another T75 flask with fresh medium and inhibitors. At the end of the assay, RNA was extracted from frozen replicon cells saved at the time of passage using QIAGEN RNeasy spin kit and was analyzed in a Real-Time RT PCR assay (Applied Biosystems).

[6] = tested on: 1b Con-1 PI-Luc replicon with NS5B polymerase mutation M423T; format: cell-based, HCV genotype 1b; conditions: ratio of mutant EC50 to wild type EC50, NS5B M423T
[7] = tested on: 1b PI-luc replicon with NS3 protease mutation A156T; format: cell-based, HCV genotype 1b; conditions: ratio of mutant EC50 to wild type EC50, NS3 A156T
[8] = tested on: 1b Con-1 PI-Luc replicon with NS5B polymerase mutation Y448H; format: cell-based, HCV genotype 1b; conditions: ratio of mutant EC50 to wild type EC50, NS5B Y448H
[9] = tested on: 1b PI-luc replicon with NS3 protease mutation V36M; format: cell-based, HCV genotype 1b; conditions: ratio of mutant EC50 to wild type EC50, NS3 V36M
[10] = tested on: 1b PI-luc replicon with NS3 protease mutation R155K; format: cell-based, HCV genotype 1b; conditions: ratio of mutant EC50 to wild type EC50, NS3 R155K
[11] = tested on: 1b Con-1 PI-Luc replicon with NS5B polymerase mutations C316Y/C445F/Y452H; format: cell-based, HCV genotype 1b; conditions: ratio of mutant EC50 to wild type EC50, NS5B C316Y/C445F/Y452H
[12] = tested on: HCV genotype 1b replicon cells (Huh-luc); experiment: Combination study in Huh-luc replicon cells analysed with MacSynergy II; format: cell-based; conditions: Compound 1 in combination with Compound 2, MacSynergy II
Experimental: as §1
For each individual drug, the EC50 value was selected as the midpoint for the concentration range tested. Cells were incubated for three days and analyzed for luciferase expression as indicated above. For the combination study, two independent experiments were performed in triplicate.
The calculated volumes of surface deviations are expressed in nM2%. Per Prichard and Shipman, combination effects are defined as:
Highly synergistic if volumes >100 nM^2.
Slightly synergistic if volumes are >50 and ≦100 nM^2.
Additive if volumes are >−50 nM^2 and ≦50 nM^2.
Slightly antagonistic if volumes are >−100 nM^2 and ≦−50 nM^2.
Antagonistic if volumes are ≦−100 nM^2.

[13] = Pharmacokinetic drug-drug interaction study, single dose with multiple-dose partner, healthy subjects (Example 6); format: in vivo, human; conditions: for Compound 1 AUC0-last, % Geometric Least-Squares Mean Ratio (90% CI) / Compound 1 AUCinf, % Geometric Least-Squares Mean Ratio (90% CI) / Compound 1 Cmax, % Geometric Least-Squares Mean Ratio (90% CI): Compound 1 + Compound 2 / Compound 1 alone; for AUC(0-t) / AUC(0-inf) / Cmax / half-life: human, plasma; for AUC(0-t): Compound 1 AUC0-last; for AUC(0-t) / AUC(0-inf) / Cmax: Mean (% CV); for AUC(0-inf): Compound 1 AUCinf; for Cmax: Compound 1 Cmax; for half-life: Compound 1 T1/2, Median (min, max)
Experimental: In this study, healthy subjects were randomized into one of the following three treatment groups: […] Treatment Group 3 (N=20): […] Serial blood samples for analysis of plasma concentrations of Compound 2 were collected up to 72 hours post-morning dose on Days 1 and 10 to determine systemic drug exposure.

[14] = tested on: wild-type 1b Con-1 PI-Luc replicon; experiment: Transient transfection replicon assay, wild type; format: cell-based, HCV genotype 1b; conditions: Hepatitis C virus
[15] = tested on: 1b PI-luc replicon with NS3 protease mutation T54A; format: cell-based, HCV genotype 1b; conditions: ratio of mutant EC50 to wild type EC50, NS3 T54A
[16] = Compound 1 (40 mg BID) + Compound 2 (75 mg BID) / Compound 1 alone
[17] = coadministration of Compound 2 (75 mg BID) with Compound 1 (40 mg BID) vs Compound 1 alone
[18] = Group 1, Compound 1 20 mg with Compound 2 150 mg BID vs Compound 1 20 mg alone
[19] = Group 2, Compound 1 40 mg with Compound 2 150 mg BID vs Compound 1 40 mg alone
[20] = 20 mg, Group 1, human, single-dose Compound 1 20 mg alone
[21] = 40 mg, Group 2, human, single-dose Compound 1 40 mg alone
[22] = Group 1, human, single-dose Compound 1 20 mg + multiple-dose Compound 2 150 mg BID
[23] = Group 2, human, single-dose Compound 1 40 mg + multiple-dose Compound 2 150 mg BID

Fc1ccccc1-c1nc2ccn(Cc3ccc(-c4ccc(C(F)(F)F)cc4C(F)(F)F)nn3)cc-2n1 [Compound 1, 5-({6-[2,4-bis(trifluoromethyl)phenyl]pyridazin-3-yl}methyl)-2-(2-fluorophenyl)-5H-imidazo[4,5-c]pyridine]
Fold Resistance M414T [1]: 0.7 fold | Fold Resistance D168V [2]: 1.2 fold | Fold Resistance D168E [3]: 1.0 fold | Compound 1 AUCtau, % Geometric Least Square Mean Ratio (90% CI) [4, 16]: 206.4 (185.1, 230.0) % | Compound 1 Cmax, % Geometric Least Square Mean Ratio (90% CI) [4, 16]: 185.2 (167.3, 205.0) % | Compound 1 Ctau, % Geometric Least Square Mean Ratio (90% CI) [4, 16]: 251.2 (219.5, 287.5) % | increase in AUCtau of Compound 1 [4, 17]: 106% | increase in Cmax of Compound 1 [4, 17]: 85% | increase in Ctau of Compound 1 [4, 17]: 151% | AUC ([4]; human, plasma, po, 40 mg): 43400 ng·h/mL | Cmax ([4]; human, plasma, po, 40 mg): 5040 ng/mL | concentration at 12 h ([4]; human, plasma, po, 40 mg): 2570 ng/mL | HCV RNA Change in Log10, Passage 5 [5]: −2.1 ± 0.5 Log10 | HCV RNA Change in Log10, Passage 6 [5]: −2.3 Log10 and −2.4 ± 0.2 Log10 | Fold Resistance M423T [6]: 0.8 fold | Fold Resistance A156T [7]: 0.6 fold | Fold Resistance Y448H [8]: 38.0 fold | Fold Resistance V36M [9]: 1.1 fold | Fold Resistance R155K [10]: 0.9 fold | Fold Resistance C316Y/C445F/Y452H [11]: >343 fold | Interaction [12]: Additive (Additive if volumes are >−50 nM^2 and ≦50 nM^2.) | Antagonism Volume ([12]; mean ± SD): 0.07 ± 0.07 nM^2 | Synergy Volume ([12]; mean ± SD): 13.5 ± 10.5 nM^2 | Compound 1 AUC0-last, % Geometric Least-Squares Mean Ratio (90% CI) ([13]; Group 1 (Compound 1 20 mg)): 250.5 (217.8, 288.0) % | Compound 1 AUCinf, % Geometric Least-Squares Mean Ratio (90% CI) ([13]; Group 1 (Compound 1 20 mg)): 321.1 (262.8, 392.2) % | Compound 1 Cmax, % Geometric Least-Squares Mean Ratio (90% CI) ([13]; Group 1 (Compound 1 20 mg)): 123.1 (111.6, 135.7) % | increase in AUC0-last of Compound 1 [13, 18]: 151% | increase in AUCinf of Compound 1 [13, 18]: 221% | increase in Cmax of Compound 1 [13, 18]: 23% | Compound 1 AUC0-last, % Geometric Least-Squares Mean Ratio (90% CI) ([13]; Group 2 (Compound 1 40 mg)): 253.0 (229.3, 279.1) % | Compound 1 AUCinf, % Geometric Least-Squares Mean Ratio (90% CI) ([13]; Group 2 (Compound 1 40 mg)): 350.4 (300.2, 409.1) % | Compound 1 Cmax, % Geometric Least-Squares Mean Ratio (90% CI) ([13]; Group 2 (Compound 1 40 mg)): 136.8 (122.7, 152.6) % | increase in AUC0-last of Compound 1 [13, 19]: 153% | increase in AUCinf of Compound 1 [13, 19]: 250% | increase in Cmax of Compound 1 [13, 19]: 37% | increase in median Compound 1 terminal phase elimination half-life ([13]; both groups (20 and 40 mg), with Compound 2 150 mg BID vs Compound 1 alone): approximately 2 fold | AUC(0-t) [13, 20]: 12800 ng·h/mL | AUC(0-inf) [13, 20]: 13400 ng·h/mL | Cmax [13, 20]: 940 ng/mL | half-life [13, 20]: 16.6 h | AUC(0-t) [13, 21]: 34100 ng·h/mL | AUC(0-inf) [13, 21]: 35500 ng·h/mL | Cmax [13, 21]: 1980 ng/mL | half-life [13, 21]: 19.2 h | AUC(0-t) [13, 22]: 32600 ng·h/mL | AUC(0-t) [13, 23]: 87500 ng·h/mL | AUC(0-inf) [13, 22]: 49500 ng·h/mL | AUC(0-inf) [13, 23]: 137000 ng·h/mL | Cmax [13, 22]: 1140 ng/mL | Cmax [13, 23]: 2730 ng/mL | half-life [13, 22]: 35.8 h | half-life [13, 23]: 39.3 h | EC50 ([14]; Table 3 (NS5B mutation study)): 1.5 nM | EC50 ([14]; Table 4 (NS3 protease mutation study)): 0.79 nM | Fold Resistance T54A [15]: 1.0 fold
